Laboratory results reported in paper PMC10023787, “Trio-pharmacophore DNA-encoded chemical library for simultaneous selection of fragments and linkers” (Nature Communications, 2023).
Where two headings read alike, the source gives them in different places.

Tests used:
[1] = molecular target: T1, MMP-9 (Homo sapiens, UniProt P14780); assay: MMP-9 inhibition assay (fluorogenic peptide substrate); assay type: biochemical; conditions: for inhibitory effect: in words; for IC50: mean ± SE, n.d: not detected, Fig. 5e prints no unit, µM, read-out: IC50
T1 construct: purchased Sino Biological 10327-HNAH
Procedure, shortened: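 Human proMMP-2 and proMMP-9 were activated with 1 mM APMA (37 °C, 2 h), then used at 6.5 nM (MMP-2) or 10 nM (MMP-9) in Tris/NaCl/CaCl2/Brij 35 buffer, pH 7.5. Enzyme was preincubated with compound 30 min at RT; 25 μM DNP-Pro-Leu-Gly-Met-Trp-Ser-Arg substrate was added and fluorescence (ex 280/em 360 nm) followed 30 min. IC50 from logistic fits of Vmax.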

[2] = molecular target: T2, MMP-2 (Homo sapiens, UniProt P08253); assay: De novo T-DEL selection against MMP-2, NGS decoding; assay type: binding
T2 construct: purchased Sino Biological 10082-HNAH
T2 sequence (P08253 110-660): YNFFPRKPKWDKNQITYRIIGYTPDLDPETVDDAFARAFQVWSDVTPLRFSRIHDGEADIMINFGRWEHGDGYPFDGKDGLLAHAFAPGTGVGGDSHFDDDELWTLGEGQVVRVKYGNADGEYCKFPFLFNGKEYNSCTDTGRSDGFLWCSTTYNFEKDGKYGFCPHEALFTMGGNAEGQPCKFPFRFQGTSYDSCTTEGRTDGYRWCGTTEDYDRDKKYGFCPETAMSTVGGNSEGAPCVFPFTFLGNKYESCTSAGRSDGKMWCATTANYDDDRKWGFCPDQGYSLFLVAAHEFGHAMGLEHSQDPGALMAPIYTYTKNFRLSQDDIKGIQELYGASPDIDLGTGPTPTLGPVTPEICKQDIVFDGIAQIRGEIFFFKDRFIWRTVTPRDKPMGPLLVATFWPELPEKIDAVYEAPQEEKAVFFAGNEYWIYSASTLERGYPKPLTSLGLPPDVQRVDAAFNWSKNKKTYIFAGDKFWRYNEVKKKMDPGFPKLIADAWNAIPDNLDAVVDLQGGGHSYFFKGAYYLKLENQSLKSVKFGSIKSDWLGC
Description: Matrix metalloproteinases (MMPs) are zinc-dependent endopeptidases capable of degrading and remodeling extracellular matrix components[46],[47]. They are attractive therapeutic targets as high expression levels were detected in various diseases, such as inflammatory diseases, and at different stages of cancers, including metastasis, invasion, and angiogenesis[47]–[53]. As shown in Supplementary Fig. 3c, we performed selections against the two gelatinases (human MMP-2 and human MMP-9) to identify binding fragments for later design and synthesis of small molecule inhibitors. After selection, the three sub-libraries were decoded, and the enrichment was calculated by dividing the post-selection fraction (count/total counts) by the pre-selection fraction (Fig. 4a and Supplementary Fig. 13).
4 µg of MMP-2/MMP-9 was dissolved in 100 µl of selection buffer containing 25 mM Tris-base, 10 mM CaCl2, 150 mM NaCl, 0.05% Tween 20, pH 7.5. 10 µl of 4-Aminophenylmercuric acetate (APMA) (100 mM) solution was added to the protein solution and incubated at 37 °C for 1 h. After activation, the solution was added on top of 40 µl pre-washed Ni-NTA resin and incubated for 30 min on a rotary shaker. The supernatant was discarded, and the resin was washed three times with the selection buffer.
For each independent selection, three sub-libraries were mixed in the selection buffer with a final concentration of 40 nM of each sub-library in 100 µl. The mixture was heat denatured at 90 °C for 1 min and slowly cooled down to allow the formation of the trio-pharmacophore library. The dynamic dual-pharmacophore DEL was provided by DyNAbind GmbH (Merck, DYNA001).
The assembled library was incubated with the protein-bound solid support for 2 h at RT on a rotary shaker. In parallel, selection on bare solid support served as the negative control to exclude promiscuous binders on the resin. After panning, the supernatant was discarded, and the resin was washed three times with 1 ml selection buffer. Finally, 100 µl of 50 mM Tris buffer, pH 7.4 was added to resuspend the resin and the resin was incubated at 95 °C for 5 min to denature the protein, release, and collect the bound library members.
The eluted library members were subjected to sample preparation for NGS. NGS preparation was achieved by two-step PCR. First, the individual selection was indexed using primers containing unique sequences corresponding to each selection. The amplified product was purified from 2% agarose gel. Second, the purified DNA from all selections were pooled in equal amount and subjected to the 2nd PCR step to attach sequences compatible with the NGS flow cell and the sequencing primers. NGS was performed by Novogene UK with Novaseq 6000. Raw data files (fastq files) obtained were decoded using a custom python script and excel. The sequence reads corresponding to each sample was retrieved by searching for the correct index unique to each selection. Then, the code region was extracted from each sequence and assigned to the corresponding identity. The count of each code in each selection sample was obtained by looping through the total reads and counting the occurrence of each code. The enrichment fold of each compound was calculated by first, dividing the count by the total count to get the abundance, second, the abundance after the selection was divided by the abundance of pre-selection to reflect the distribution change of the compound. Next, the enrichment fold was plotted against the count for each member of the library to give the scatter plots as in Fig. 4.

[3] = read-out: Mean (MMP-9, Supplementary fig 16)
[4] = read-out: Mean (MMP-9 dose-response, Supplementary fig 15)
[5] = read-out: Mean (dose-response, Supplementary fig 17)
[6] = read-out: Normalized activity (Mean)

T1 sequence (P14780 107-707 limits assumed): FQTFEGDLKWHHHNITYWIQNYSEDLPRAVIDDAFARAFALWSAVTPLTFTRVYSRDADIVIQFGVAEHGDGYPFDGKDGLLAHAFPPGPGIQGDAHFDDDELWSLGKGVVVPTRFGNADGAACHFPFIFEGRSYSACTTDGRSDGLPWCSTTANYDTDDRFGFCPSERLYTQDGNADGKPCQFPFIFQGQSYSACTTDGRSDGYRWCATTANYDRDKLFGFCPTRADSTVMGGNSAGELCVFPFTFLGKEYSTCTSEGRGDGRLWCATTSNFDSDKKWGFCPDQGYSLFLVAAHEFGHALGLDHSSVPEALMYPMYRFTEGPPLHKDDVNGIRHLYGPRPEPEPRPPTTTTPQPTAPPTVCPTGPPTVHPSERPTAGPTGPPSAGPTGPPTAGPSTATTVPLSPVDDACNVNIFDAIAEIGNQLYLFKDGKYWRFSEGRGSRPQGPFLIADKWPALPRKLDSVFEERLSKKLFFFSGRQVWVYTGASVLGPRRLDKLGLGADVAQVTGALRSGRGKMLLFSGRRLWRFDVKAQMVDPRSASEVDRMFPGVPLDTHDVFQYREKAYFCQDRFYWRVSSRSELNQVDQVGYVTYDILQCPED

SMILES: NCc1c[nH]nn1 [Compound 787]
- remaining activity at 0.078016 µM ([1]; Figure 5b, fragment concentration 0.078016 µM, read-out: Normalized activity (Mean)): 99.6%
- remaining activity at 0.39008 µM ([1]; Figure 5b, fragment concentration 0.39008 µM, read-out: Normalized activity (Mean)): 103%
- remaining activity at 1.9504 µM ([1]; Figure 5b, fragment concentration 1.9504 µM, read-out: Normalized activity (Mean)): 88%
- remaining activity at 9.752 µM ([1]; Figure 5b, fragment concentration 9.752 µM, read-out: Normalized activity (Mean)): 89.2%
- remaining activity at 48.76 µM ([1]; Figure 5b, fragment concentration 48.76 µM, read-out: Normalized activity (Mean)): 88.6%
- remaining activity at 243.8 µM ([1]; Figure 5b, fragment concentration 243.8 µM, read-out: Normalized activity (Mean)): 78.5%
- remaining activity at 1219 µM ([1]; Figure 5b, fragment concentration 1219 µM, read-out: Normalized activity (Mean)): 32.5%
- remaining activity at 0.08 µM ([1]; MMP-9, concentration 0.08 µM, read-out: Mean (MMP-9, Supplementary fig 16)): 99.6%
- remaining activity at 0.39 µM ([1]; MMP-9, concentration 0.39 µM, read-out: Mean (MMP-9, Supplementary fig 16)): 103%
- remaining activity at 1.95 µM ([1]; MMP-9, concentration 1.95 µM, read-out: Mean (MMP-9, Supplementary fig 16)): 88%
- remaining activity at 9.75 µM ([1]; MMP-9, concentration 9.75 µM, read-out: Mean (MMP-9, Supplementary fig 16)): 89.2%
- remaining activity at 48.76 µM ([1]; MMP-9, concentration 48.76 µM, read-out: Mean (MMP-9, Supplementary fig 16)): 88.6%
- remaining activity at 243.8 µM ([1]; MMP-9, concentration 243.80 µM, read-out: Mean (MMP-9, Supplementary fig 16)): 78.5%
- remaining activity at 1219 µM ([1]; MMP-9, concentration 1219.00 µM, read-out: Mean (MMP-9, Supplementary fig 16)): 32.5%
- remaining activity at 0.08 µM ([1]; MMP-9, concentration 0.08 µM, read-out: Mean (MMP-9 dose-response, Supplementary fig 15)): 99.6%
- remaining activity at 0.08 µM ([1]; MMP-9, concentration 0.08 µM, read-out: Mean (dose-response, Supplementary fig 17)): 99.6%
- remaining activity at 0.39 µM ([1]; MMP-9, concentration 0.39 µM, read-out: Mean (MMP-9 dose-response, Supplementary fig 15)): 103%
- remaining activity at 0.39 µM ([1]; MMP-9, concentration 0.39 µM, read-out: Mean (dose-response, Supplementary fig 17)): 103%
- remaining activity at 1.95 µM ([1]; MMP-9, concentration 1.95 µM, read-out: Mean (MMP-9 dose-response, Supplementary fig 15)): 88%
- remaining activity at 1.95 µM ([1]; MMP-9, concentration 1.95 µM, read-out: Mean (dose-response, Supplementary fig 17)): 88%
- remaining activity at 9.75 µM ([1]; MMP-9, concentration 9.75 µM, read-out: Mean (MMP-9 dose-response, Supplementary fig 15)): 89.2%
- remaining activity at 9.75 µM ([1]; MMP-9, concentration 9.75 µM, read-out: Mean (dose-response, Supplementary fig 17)): 89.2%
- remaining activity at 48.76 µM ([1]; MMP-9, concentration 48.76 µM, read-out: Mean (MMP-9 dose-response, Supplementary fig 15)): 88.6%
- remaining activity at 48.76 µM ([1]; MMP-9, concentration 48.76 µM, read-out: Mean (dose-response, Supplementary fig 17)): 88.6%
- remaining activity at 243.8 µM ([1]; MMP-9, concentration 243.80 µM, read-out: Mean (MMP-9 dose-response, Supplementary fig 15)): 78.5%
- remaining activity at 243.8 µM ([1]; MMP-9, concentration 243.80 µM, read-out: Mean (dose-response, Supplementary fig 17)): 78.5%
- remaining activity at 1219 µM ([1]; MMP-9, concentration 1219.00 µM, read-out: Mean (MMP-9 dose-response, Supplementary fig 15)): 32.5%
- remaining activity at 1219 µM ([1]; MMP-9, concentration 1219.00 µM, read-out: Mean (dose-response, Supplementary fig 17)): 32.5%
- inhibitory effect [1]: high µM
- IC50 [1]: 784 ± 115 µM
- MMP2 SL-A Count ([2]; NGS sequence count of sub-library SL-A building block, de novo T-DEL selection against MMP-2): 589
- MMP2 SL-C Count ([2]; NGS sequence count of sub-library SL-C building block, de novo T-DEL selection against MMP-2): 2395
- MMP2 SL-A Enrichment Fold ([2]; sub-library SL-A building block, de novo T-DEL selection against MMP-2): 0.846
- MMP2 SL-C Enrichment Fold ([2]; sub-library SL-C building block, de novo T-DEL selection against MMP-2): 2.519

SMILES: O=C(O)c1cncc(O)c1 [Compound 828]
- inhibitory effect [1]: high µM range
- IC50 [1]: 271 ± 12.4 µM
- remaining activity at 0.08 µM [1, 3]: 98.6%
- remaining activity at 0.39 µM [1, 3]: 97.4%
- remaining activity at 1.95 µM [1, 3]: 84.3%
- remaining activity at 9.75 µM [1, 3]: 88.7%
- remaining activity at 48.76 µM [1, 3]: 80.3%
- remaining activity at 243.8 µM [1, 3]: 54.4%
- remaining activity at 1219 µM [1, 3]: 0%
- remaining activity at 0.08 µM [1, 4]: 98.6%
- remaining activity at 0.39 µM [1, 4]: 97.4%
- remaining activity at 1.95 µM [1, 4]: 84.3%
- remaining activity at 9.75 µM [1, 4]: 88.7%
- remaining activity at 48.76 µM [1, 4]: 80.3%
- remaining activity at 243.8 µM [1, 4]: 54.4%
- remaining activity at 1219 µM [1, 4]: 0%
- remaining activity at 0.08 µM [1, 5]: 98.6%
- remaining activity at 0.39 µM [1, 5]: 97.4%
- remaining activity at 1.95 µM [1, 5]: 84.3%
- remaining activity at 9.75 µM [1, 5]: 88.7%
- remaining activity at 48.76 µM [1, 5]: 80.3%
- remaining activity at 243.8 µM [1, 5]: 54.4%
- remaining activity at 1219 µM [1, 5]: 0%
- remaining activity at 0.078016 µM [1, 6]: 98.6%
- remaining activity at 0.39008 µM [1, 6]: 97.4%
- remaining activity at 1.9504 µM [1, 6]: 84.3%
- remaining activity at 9.752 µM [1, 6]: 88.7%
- remaining activity at 48.76 µM [1, 6]: 80.3%
- remaining activity at 243.8 µM [1, 6]: 54.4%
- remaining activity at 1219 µM [1, 6]: 0%
- MMP2 SL-C Enrichment Fold ([2]; enrichment fold of sub-library SL-C member, MMP-2 selection, Figure 4a source data): 4.434
- MMP2 SL-C Count ([2]; sequence count of sub-library SL-C member, MMP-2 selection, Figure 4a source data): 13025
